The source of these data is US12662493B2, “Non-immunosuppressive FK506 analogs and use thereof” (The Johns Hopkins University, priority 2019, dated 2026).

For series [1], the system named is BMP signaling pathway (ID1 gene promoter). The experiment in a line: BMP-response-element (BRE) luciferase pathway reporter in Jurkat T cells. The class given is cell-based. Particulars: for reduction of FK506- or FKVP-induced BRE reporter activity: LDN at 100 nM; for BRE reporter (ID-1 promoter luciferase) activation: 18 h, normalized to DMSO. How it is done:
(§1) Jurkat (E6.1, ATCC) cells were cultured in RPMI with 10% FBS and 1.5% PennStrep. Jurkat cells (1×10^6) were transfected with 10 μg of BRE-Luciferase (kindly provided by Martine Roussel & Peter ten Dijke) or NFAT-Luciferase cDNA (Promega) by electroporation (BioRad, square-wave, 250V, […]) in 400 μL serum/antibiotic free RPMI with 0.5% DMSO. Thirty minutes after transfection, cells were transferred to complete RPMI and rested overnight. Before plating, cells were re-suspended in fresh media and diluted to 0.5×10^6 cells/mL. HEK293T cells were cultured in DMEM with 10% FBS, 1% PennStrep, and 500 μg/mL G418 (Corning). Cells were transfected using SuperFect reagent and supplied transfection protocols. HUVEC cells were cultured in Lonza Endothelial Cell Growth Medium (EGM-2) and used between passages 3 and 7. All cells were cultured at 37° C. with 5% CO2.
Jurkat T cells transfected with BRE-Luc were split into a 96-well plate (80 μL/well of 0.5×10^6 cells/mL)) and treated with previously stated compounds/proteins (20 μL of 5X stock in RPMI, 0.5% DMSO) for 18 h. rBMP-4 and […] (R&D) were used as positive and negative controls, respectively. Plates were centrifuged at 3000 rpm for 10 min, then carefully aspirated. Cells were re-suspended in 100 μL lysis buffer (per well) and placed on a plate-shaker for 30 min. An aliquot of 80 μL of lysate was transferred to a white-walled 96-well plate, and luminescence was recorded 2 seconds after automated injection of luciferase substrate. Luminescence values were background subtracted (lysis buffer+substrate) and normalized to DMSO control values.
FKBP12KO Jurkat T cells transfected with FKBP12-SNAP plasmid were selected with 1200 μg/mL G418 for seven days before use in BRE-Luc assays.

The subject of series [2] is CD133+ stem cells in wound sites. The experiment in a line: CD133 immunohistochemistry of wound tissue of GK rats. It counts as in vivo, Goto-Kakizaki (GK) type-2 diabetic rats. The conditions noted are these: day 7, versus AF. How it is done: (§2) Full-thickness wounds were created in the dorsal skin of rats with a sterile disposable biopsy punch (8 mm in diameter). The animals were injected subcutaneously with saline, AMD3100 (1 mg/kg) plus FK506 (0.1 mg/kg) or AMD3100 (1 mg/kg) plus FKVP (0.1 mg/kg) immediately after wounding and every other day until complete healing, defined as complete re-epithelialization of the wound area. For assessing the role of BMP signaling, animals were injected intraperitoneally (i.p.) with LDN-193189 (2 mg/kg/day) in addition to standard saline or AF treatment. Wounds were evaluated daily according to the method described previously (Lin et al., 2014).
Cut sections of 5 μm were prepared from frozen tissue for immunohistochemistry staining. Frozen sections were fixed with acetone at −20° C. for 10 min and dried for 1 h at room temperature. After inactivation of endogenous peroxidase and blocking of nonspecific antibody binding, the specimens were incubated with anti-CD133 (1:300, ab19898; Abcam) at 4° C. overnight. The tissue sections were then subsequently incubated with biotin-conjugated goat anti-rabbit IgG (1:200, #14708S Cell Signaling, Danvers, MA) for 30 minutes at room temperature. The VectaStain Elite ABC kit (HRP) (Vector Laboratories, Burlingame, CA) was used to increase the sensitivity of the staining. […]

Series [3] concerns full-thickness excisional wounds. The experiment in a line: In vivo excisional wound model in diabetic GK rats. Also on record: species or system Goto-Kakizaki (GK) type-2 diabetic rats. As for the experimental part: Goto-Kakizaki (GK) type-2 diabetic rats obtained from Charles River (Boston, MA) were housed in a pathogen-free facility and cared for according to NIH guidelines and a protocol approved by the Johns Hopkins University Animal Care and Use Committee (ACUC). Both male and female GK rats at age of 4-5 months were used in this study.
as §2
The one-way analysis of variance (ANOVA) was used to determine the statistically difference in wound healing among AF, AF+LDN, Saline and S+LDN groups or between AF, AV and Saline groups when comparing days of wound healing.

The subject of series [4] is BMP type 1 receptor (SMAD1/5 phosphorylation). The experiment in a line: SMAD1/5 phosphorylation Western blot in Jurkat cells. The class given is cell-based. Particulars: LDN treatment.
The subject of series [5] is cell migration stimulated by CXCL12. The conditions noted are these: cited from earlier work.
The subject of series [6] is full-thickness excisional wounds. Particulars: mouse, in vivo; cited from earlier work.
The next series has as its system Jurkat T cells. The experiment in a line: Resazurin-based cell viability assay of Jurkat cells. The conditions noted are these: 3 days, concentrations up to 10 μM. How it is done: as §1
Jurkat or HUVEC cells were plated at 1000 cells/well in 180 μL growth media before addition of 20 μL of 10X drug/protein stock. After incubation for 72 h, 22 μL of a resazurin sodium salt solution (0.1 mg/mL stock in water) was added to each well and allowed to incubate at 37° C. The metabolic conversion of resazurin dye was monitored by absorbance at 570 nm after 6 h. After background subtraction (media only+dye), absorbance values were left as arbitrary absorbance units or normalized to those obtained from cells treated with DMSO.
For orientation: The colour change of resazurin is a common sign of viable cells or microbes.

In the case of `c1ccc2c(-c3cnn4cc(-c5ccc(N6CCNCC6)cc5)cnc34)ccnc2c1` [LDN-193189], in series [1], the “reduction of FK506- or FKVP-induced BRE reporter activity” value is recorded as “completely blocked”. Moreover, the “number of CD133+ cells in the wounds, LDN added to AF combination” value in series [2] was “dramatically reduced”. Further, the “time for complete healing, LDN added to AF combination” value in series [3] (LDN-193189 2 mg/kg/day i.p. plus AF) is given as 25 days. Also, the “effect on wound healing, LDN alone” value in series [3] (LDN-193189 2 mg/kg/day i.p. with saline) was “no effect on wound healing”. Also, the “effect on FK506/FKVP-induced SMAD1/5 phosphorylation” value in series [4] is “abolished”.
`c1cc(CN2CCCNCCNCCCNCC2)ccc1CN1CCCNCCNCCCNCC1` [AMD3100, 1,1′-[1,4-phenylenebis(methylene)]bis-1,4,8,11-tetraazacyclo-tetradecane]: the “BRE reporter (ID-1 promoter luciferase) activation” value in series [1] is given as “no effect on ID-1 promoter stimulation”. Also, the IC50 in series [5] is 51 ± 17 nM. Moreover, the “healing, AMD3100 treatment alone” value in series [6] is recorded as “only slightly faster healing”.
`C=CC[C@@H]1/C=C(\C)C[C@H](C)C[C@H](OC)[C@H]2O[C@@](O)(C(=O)C(=O)N3CCCC[C@H]3C(=O)O[C@H](/C(C)=C/[C@@H]3CC[C@@H](O)[C@H](OC)C3)[C@H](C)[C@@H](O)CC1=O)[C@H](C)C[C@@H]2OC` [FK506]: the cell viability entry in the series with Jurkat T cells is given as “did not affect cell viability”.

B1: Noggin: extracellular BMP-inhibitor protein (protein, UniProt Q13253 28-232, looked up)
Noggin: QHYLHIRPAPSDNLPLVDLIEHPDPIFDPKEKDLNETLLRSLLGGHYDPGFMATSPPEDRPGGGGGAAGGAEDLAELDQLLRQRPSGAMPSEIKGLEFSEGLAQGKKQRLSKKLRRKLQMWLWSQTFCPVLYAWNDLGSRFWPRYVKVGSCFSKRSCSVPEGMVCKPSKSVHLTVLRWRCQRRGGQRCGWIPIQYPIISECKCSC
Consider B1, for which the “reduction of FK506- or FKVP-induced BRE reporter activity” value in series [1] is “not effective at reducing”.

B2: BMP4: recombinant BMP-4 protein, positive control of the BRE reporter (protein, UniProt P12644 293-408, looked up)
Bone morphogenetic protein 4: SPKHHSQRARKKNKNCRRHSLYVDFSDVGWNDWIVAPPGYQAFYCHGDCPFPLADHLNSTNHAIVQTLVNSVNSSIPKACCVPTELSAISMLYLDEYDKVVLKNYQEMVVEGCGCR
For the molecule B2, in series [1], the “BRE reporter (ID-1 promoter luciferase) activation” value is recorded as “strong induction of luciferase expression”.

The term IC50 denotes the midpoint of a concentration-inhibition curve.
